Earlier results as cited in article PMC9179904 (Cancers, 2022).

How the values were obtained:
[1] = design: method as in PMID 7938477, PMID 9935073
[2] = tested on: PC-3 PIP and LNCaP tumors; design: method as in PMID 34402925

^213Bi-CHX-A-DTPA-HuM195m
Internalized alpha particles needed to decrease survival to 37–50% [1]: 1

S=C([S-])N1CCCC1.S=C([S-])N1CCCC1.[Pb+2] [^212Pb(PDC)2]
Internalized alpha particles needed to decrease survival to 37–50% [1]: 11

O=C([O-])CN1CCN(CC(=O)[O-])CCN(CC(=O)NCC2CCC(C(=O)N[C@@H](Cc3ccc4ccccc4c3)C(=O)NCCCC[C@H](NC(=O)N[C@@H](CCC(=O)O)C(=O)O)C(=O)O)CC2)CCN(CC(=O)[O-])CC1.[177Lu+3] (stereo partly drawn) [^177Lu-PSMA-617]
Tumor uptake, PC-3 PIP higher than LNCaP tumors [2]: 6–10 fold
